# Experimental data published in the supplement of paper PMC10307832.
# Tests used:
# Assay in all cases: relative viability (nuclei count vs DMSO), 5 days (fraction); higher = more cells survive
# Bosutinib + Olaparib = compound: COc1cc(Nc2c(C#N)cnc3cc(OCCCN4CCN(C)CC4)c(OC)cc23)c(Cl)cc1Cl [Bosutinib] + O=C(c1cc(Cc2n[nH]c(=O)c3ccccc23)ccc1F)N1CCN(C(=O)C2CC2)CC1 [Olaparib] (partner 8 µM)
# Outline: (§1)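 Five library-drug doses in √10 steps were combined with a fixed anchor-drug dose, or a single drug was given alone, by pin tool to lung cancer cell lines in 1536-well plates the day after seeding. Nuclei were stained and counted after 5 days. Relative viability is the nuclei count in treated wells over that in vehicle wells, taken as the median of duplicate plates.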
# Bosutinib + Decitabine = compound: COc1cc(Nc2c(C#N)cnc3cc(OCCCN4CCN(C)CC4)c(OC)cc23)c(Cl)cc1Cl [Bosutinib] + Nc1ncn([C@H]2C[C@H](O)[C@@H](CO)O2)c(=O)n1 [Decitabine] (partner 2 µM)
# Outline: as §1
# Bosutinib + Vorinostat = compound: COc1cc(Nc2c(C#N)cnc3cc(OCCCN4CCN(C)CC4)c(OC)cc23)c(Cl)cc1Cl [Bosutinib] + O=C(CCCCCCC(=O)Nc1ccccc1)NO [Vorinostat] (partner 1 µM)
# Outline: as §1
# Bosutinib + Alpelisib = compound: COc1cc(Nc2c(C#N)cnc3cc(OCCCN4CCN(C)CC4)c(OC)cc23)c(Cl)cc1Cl [Bosutinib] + Cc1nc(NC(=O)N2CCC[C@H]2C(N)=O)sc1-c1ccnc(C(C)(C)C(F)(F)F)c1 [Alpelisib] (partner 2 µM)
# Outline: as §1
# Bosutinib + Pemetrexed = compound: COc1cc(Nc2c(C#N)cnc3cc(OCCCN4CCN(C)CC4)c(OC)cc23)c(Cl)cc1Cl [Bosutinib] + Nc1nc2[nH]cc(CCc3ccc(C(=O)N[C@@H](CCC(=O)O)C(=O)O)cc3)c2c(=O)[nH]1 [Pemetrexed] (partner 0.2 µM)
# Outline: as §1
Cell Line,relative viability (Bosutinib + Olaparib; first compound 0.01 µM),relative viability (Bosutinib + Olaparib; first compound 0.03162 µM),relative viability (Bosutinib + Olaparib; first compound 0.1 µM),relative viability (Bosutinib + Olaparib; first compound 1 µM),relative viability (Bosutinib + Decitabine; first compound 0.01 µM),relative viability (Bosutinib + Decitabine; first compound 0.03162 µM),relative viability (Bosutinib + Decitabine; first compound 0.1 µM),relative viability (Bosutinib + Decitabine; first compound 1 µM),relative viability (Bosutinib + Vorinostat; first compound 0.01 µM),relative viability (Bosutinib + Vorinostat; first compound 0.03162 µM),relative viability (Bosutinib + Vorinostat; first compound 0.1 µM),relative viability (Bosutinib + Vorinostat; first compound 1 µM),relative viability (Bosutinib + Alpelisib; first compound 0.01 µM),relative viability (Bosutinib + Alpelisib; first compound 0.03162 µM),relative viability (Bosutinib + Alpelisib; first compound 0.1 µM),relative viability (Bosutinib + Alpelisib; first compound 1 µM),relative viability (Bosutinib + Pemetrexed; first compound 0.01 µM),relative viability (Bosutinib + Pemetrexed; first compound 0.03162 µM),relative viability (Bosutinib + Pemetrexed; first compound 0.1 µM),relative viability (Bosutinib + Pemetrexed; first compound 1 µM)
PC-14,0.241,0.342,0.208,0.21,0.248,0.226,0.224,0.174,0.783,0.694,0.673,0.126,0.91,0.9,0.828,0.323,0.134,0.135,0.13,0.145
SK-LU-1,0.474,0.686,0.5,0.383,0.646,0.644,0.637,0.548,0.848,0.768,0.844,0.632,0.949,1.31,1.12,0.46,1.02,0.899,0.982,0.693
NCI-H1437,0.609,0.635,0.604,0.545,0.536,0.567,0.572,0.482,0.875,0.793,0.842,0.805,0.939,0.954,1.04,0.862,0.317,0.377,0.311,0.29
NCI-H1734,0.629,0.62,0.584,0.488,0.511,0.55,0.483,0.458,0.836,0.86,0.855,0.654,0.642,0.632,0.748,0.59,0.401,0.392,0.445,0.377
LK-2,0.538,0.962,0.807,0.707,0.278,0.363,0.313,0.359,0.267,0.278,0.263,0.313,1.11,1.08,1.05,0.761,0.235,0.281,0.321,0.266
HCC-15,0.652,0.699,0.695,0.661,0.653,0.659,0.659,0.609,0.759,0.893,0.893,0.772,0.844,0.9,0.924,0.85,0.227,0.244,0.226,0.221
HCC-366,0.406,0.378,0.376,0.19,0.348,0.365,0.312,0.265,0.433,0.378,0.375,0.286,0.532,0.416,0.305,0.111,0.167,0.158,0.162,0.166
NCI-H650,0.407,0.357,0.424,0.424,0.327,0.295,0.29,0.419,0.446,0.356,0.483,0.415,1.15,1.12,1.21,1.18,0.893,0.846,0.972,0.953
NCI-H2347,0.491,0.609,0.545,0.539,0.631,0.623,0.64,0.529,0.461,0.579,0.654,0.543,1,1.07,1.06,1.12,0.434,0.469,0.462,0.421
LXF-289,1.05,1.12,0.972,1.24,0.338,0.368,0.427,0.449,0.808,0.852,0.792,0.758,1.03,0.986,1.01,1.06,0.908,1.04,0.985,0.88
BEN,1.04,1.05,1.04,0.735,0.668,0.752,0.819,0.668,0.557,0.56,0.654,0.514,0.986,1.04,0.888,0.669,0.641,0.772,0.746,0.576
NCI-H2023,0.493,0.427,0.461,0.423,0.233,0.248,0.216,0.25,0.617,0.661,0.767,0.396,0.581,0.655,0.538,0.426,0.218,0.263,0.23,0.223
NCI-H661,0.696,0.736,0.743,0.649,0.57,0.537,0.521,0.426,0.784,0.912,0.866,0.829,0.407,0.881,0.88,0.477,0.919,0.908,0.952,0.741
NCI-H1355,0.715,0.733,0.784,0.633,0.304,0.366,0.352,0.368,0.655,0.694,0.708,0.625,0.871,0.816,0.893,0.72,1.05,0.975,1.06,1.05
NCI-H1793,0.815,0.804,0.755,0.539,0.505,0.505,0.436,0.436,0.718,0.75,0.877,0.504,0.669,0.603,0.711,0.49,0.86,0.792,0.829,0.639
